Measurements as given in patent US11628133B2, “Uses of the peptide of sequence His-D-Trp-Ala-Trp-d-Phe-Lys-NH2 for reducing or delaying the appearance of cell senescence and signs of skin aging” (ISP INVESTMENTS LLC, priority 2015, dated 2023).
Where no end group is shown, it is not given here. [ ]: non-standard residue; d: D form.

Legend:
[1] = test system: prolidase; assay: Activity of prolidase in human fibroblasts (Gly-Pro substrate, Chinard's reagent); assay type: cell-based; conditions: untreated = 100
Experimental: Protocol: Cultured human fibroblasts were treated with hexapeptide-2 in a concentration of 0.5 and 1 μM after dilution in a culture medium, for 24 hours (2 applications per day). At the same time, fibroblasts were treated with an activator and an inhibitor of prolidase: retinoic acid (Sigma, Ref. R2625) and Cpz-Pro (Bachem, Ref. 4001343). Next, the cells were detached from the dish with the aid of a 150 mM NaCl solution. After having recovered the cellular pellet and activating the prolidase with a solution containing 2 mM MnCl2 for 2 hours at 37° C., the prolidase substrate was added: 47 mM of Glycine-Proline (Sigma, Ref. G3002) for 1 hour at 37° C. Next, the amount of proline contained in each sample was determined at a wavelength of 515 nm using Chinard's reagent. At the same time, a proline concentration range was produced in order to establish a calibration curve. The amount of protein was determined using the BCA protein assay kit (Thermo Scientific, Ref. 23225), which enabled the ratio of proline to the number of proteins in each sample to be recorded.

[2] = test system: collagen I; assay: Expression of intracellular collagen I in human fibroblasts by flow cytometry; assay type: cell-based; conditions: untreated = 100
Experimental: Protocol: Cultured human fibroblasts were treated with hexapeptide-2 in a concentration of 0.5 and 1 μM after dilution in a culture medium, for 48 hours (2 applications per day). At the same time, fibroblasts were treated with an activator for collagen I: TGF-β (R&D system, Ref. 240B). The fibroblasts were trypsinated and the cellular pellet was recovered. The cells were then fixed with cold methanol for 15 minutes at 4° C. Immunolabelling was carried out with the aid of a mouse monoclonal antibody specific for collagen I (Millipore, Ref: anti-Collagen Type I, Clone: 5D8-G9) coupled with a fluorochrome. Next, 10 000 cells were analysed by flow cytometry (Guava EasyCyte) in order to determine the amount of fluorescence in each of them.

[3] = test system: prolidase; assay: Expression of prolidase in human fibroblasts (immunofluorescence); assay type: cell-based; conditions: 24 hours, 2 applications per day, untreated = 100
Experimental: Protocol: Cultured human fibroblasts were treated with hexapeptide-2 in a final concentration of 0.5 and 1 μM after dilution in a culture medium, for 24 hours (2 applications per day). The cells were then washed, fixed with cold methanol for 4 minutes at 4° C. The cells were incubated in the presence of a mouse monoclonal antibody specific for prolidase (LifeSpan BioSciences, Ref. LS-C115644), then of an anti-mouse secondary antibody coupled to a fluorochrome (Invitrogen, Ref. A21202). The cells were then examined under an epifluorescence microscope (Zeiss Axiovert 200M microscope). Quantification of the fluorescence was carried out from the photographs obtained.

[4] = test system: collagen I; assay: Expression of collagen I in human skin in ex vivo culture; assay type: cell-based; conditions: 48 hours, untreated = 100
Experimental: (§1) Protocol: Samples of human skin were cultured at the air/liquid interface. Hexapeptide-2 was applied topically to the samples in concentrations of 0.5 and 1 μM after dilution in a culture medium, in an amount of 2 applications per day, then the samples were incubated for 48 hours at 37° C.
(§2) These skin samples were subsequently fixed with formaldehyde then included into paraffin. 4 μm sections were then produced.
(§3) Labelling of the collagens I and III was then carried out after demasking specific sites by microwave incubation then by treatment with trypsin. The immunolabelling was carried out with the aid of a rabbit polyclonal antibody specific for collagen I (Rockland, Ref. 600-401-103-0.5), a rabbit polyclonal antibody specific for collagen III (Rockland, Ref 600-401-105-0.5), then an anti-rabbit secondary antibody coupled to a fluorochrome (Invitrogen, Ref. A21206). The cells were then examined under an epifluorescence microscope (Zeiss Axiovert 200M microscope). A quantification of the fluorescence from the photographs obtained was carried out.

[5] = test system: collagen III; assay: Expression of collagen III in human skin in ex vivo culture; assay type: cell-based; conditions: 48 hours, untreated = 100
Experimental: as §1, §2, §3

[6] = test system: miRNA-29a 3p; assay: Expression of miRNA-29a 3p in human fibroblasts from donors of different ages (qPCR); assay type: cell-based; conditions: overnight, concentration (0.5 or 1 μM) not stated
Experimental: Protocol: Human fibroblasts from 3 donors were treated with hexapeptide-2 in a concentration of 0.5 and 1 μM in culture medium overnight (1 application).
The miRNAs were extracted with the aid of an extraction kit (Ambion, Ref. AM1561), then reverse transcribed with a specific kit (Applied Biosystem, Ref 4374966). A real time PCR was carried out in a thermocycler using a TaqMan Gene Expression Assay specific for miRNA-29a 3p (Applied Biosystems, Ref 002112) and a TaqMan Gene Expression Assays specific for RNU44 used as the control endogen (Applied Biosystems, Ref. 001094). The relative quantification if the expression of miRNA-29a 3p was carried out by the comparative Ct method.

[7] = test system: human fibroblasts made senescent by transfection with the siRNA FOXO3a; assay: Activity of β-galactosidase in human fibroblasts made senescent by transfection with the siRNA FOXO3a; assay type: cell-based; conditions: 1 μM, 48 hours, siRNA FOXO3a transfected cells; results not shown
Experimental: Protocol: Cultured human fibroblasts were treated or not treated with a specific siRNA of FOXO3a (Invitrogen, Ref. HSS177176) in a final concentration of 25 nM using the technique of transfection by Lipofectamine™ RNAiMAX (Invitrogen, Ref 56531) and treated or not treated with hexapeptide-2 in a final concentration of 1 μM in culture medium, for 48 hours (2 applications per day).
The cells were rinsed and fixed in a fixing buffer (0.2% glutaraldehyde, 2% formaldehyde). The cells were then incubated at 37° C. without CO2 for 24 hours, with a solution of 1 mg/mL X-Gal in 40 mM of citric acid/phosphate (pH 6), 5 mM K3FeCN6, 5 mM K4FeCN6, 150 mM NaCl and 2 mM MgCl2. The cells were then examined under white light with a microscope (Nikon Eclipse E600 microscope).

[8] = test system: collagen I; assay: Expression of collagen I in human fibroblasts made senescent by transfection with the siRNA FOXO3a; assay type: cell-based; conditions: 0.5 or 1 μM, 48 hours, siRNA FOXO3a transfected cells
Experimental: Protocol: Cultured human fibroblasts were treated or not treated with a specific siRNA of FOXO3a (Invitrogen, Ref. HSS177176) in a final concentration of 25 nM using the technique of transfection by Lipofectamine™ RNAiMAX (Invitrogen, Ref. 56531) and treated or not treated with hexapeptide-2 in a concentration of 0.5 or 1 μM in culture medium, for 48 hours (2 applications per day).
The fibroblasts were trypsinated and the cellular pellet was recovered. The cells were then fixed with cold methanol for 15 minutes at 4° C. Immunolabelling was carried out with the aid of a mouse monoclonal antibody specific for collagen I (Millipore, Ref. anti-Collagen Type I, Clone: 5D8-G9) coupled with a fluorochrome. Next, 10 000 cells were analysed using flow cytometry (Guava EasyCyte) in order to determine the level of fluorescence in each of them.

[9] = test system: human fibroblasts made senescent by replicative senescence; assay: Activity of β-galactosidase in human fibroblasts made senescent by replicative senescence (long-term treatment); assay type: cell-based; conditions: 1 μM daily, long-term (about 3 months), general over passes
Experimental: Protocol: Human fibroblasts were cultured in a specific medium and maintained under culture (for more than 27 passes) and treated or not treated with a daily application of hexapeptide-2 in a concentration of 1 μM in the culture medium, (i.e. 5 applications per week). A portion of the cells was frozen in each pass. Next, key passes were selected: passes 4, 12, 16, 20, 24 and 27. After freezing, the senescent phenotype of the fibroblasts treated or not treated with 1 μM hexapeptide-2 was evaluated by assaying the activity of β-galactosidase.
(§4) To this end, the cells were rinsed and fixed in a fixing buffer (0.2% glutaraldehyde, 2% formaldehyde). The cells were then incubated, at 37° C. without CO2 for 24 hours, with a solution of 1 mg/mL X-Gal in 40 mM of citric acid/phosphate (pH 6), 5 mM K3FeCN6, 5 mM K4FeCN6, 150 mM NaCl and 2 mM MgCl2. The cells were then examined under white light with a microscope (Nikon Eclipse E600 microscope).

[10] = test system: senescent human fibroblasts by replicative senescence; assay: Activity of β-galactosidase in senescent human fibroblasts by replicative senescence (short-term treatment); assay type: cell-based; conditions: 1 μM, 48 hours, general over passes
Experimental: Protocol: Human fibroblasts were cultured in a specific medium and maintained under long-term culture treatment (for more than 28 passes, i.e. approximately 3 months). A portion of the cells was frozen in each pass. Next, key passes were selected: passes 4, 12, 16, 20 and 28. After freezing, the fibroblasts were treated with 1 μM hexapeptide-2 in culture medium, for 48 hours (2 applications per day). The senescent phenotype of the fibroblasts treated or not treated with 1 μM hexapeptide-2 was evaluated by assaying the activity of the β-galactosidase.
as §4

[11] = test system: prolidase; assay: Activity of prolidase in human fibroblasts made senescent by replicative senescence (long-term treatment); assay type: cell-based; conditions: 1 μM daily long-term
Experimental: Protocol: Human fibroblasts were cultured in a specific medium and maintained under long-term culture treatment (for more than 20 passes, i.e. approximately 3 months), treated or not treated with the aid of a daily application of hexapeptide-2 in a concentration of 1 μM in culture medium, (5 applications per week). A portion of the cells was frozen for each pass. Next, two passes were selected: passes 12 and 20.
To this end, the cells were detached from their support with a solution of 150 mM NaCl. After recovering the cellular pellet and activating the prolidase with a solution containing 2 mM of MnCl2 for 2 hours at 37° C., the substrate for the prolidase was added: 47 mM of Glycine-Proline (Sigma, Ref. G3002), for 1 hour at 37° C. Next, the proline content contained in each sample was determined at a wavelength of 515 nm using Chinard's reagent. At the same time, a concentration range for proline was produced in order to establish a calibration curve. The protein content was determined using the BCA protein assay kit (Thermo Scientific, Ref. 23225), in order to relate the proline content with the number of proteins in each sample.

[12] = test system: miRNA-29a 3p; assay: Expression of miRNA-29a 3p in human fibroblasts made senescent by replicative senescence (long-term treatment); assay type: cell-based
Experimental: Protocol: Human fibroblasts were cultured in a specific medium and maintained under a long-term culture treatment (for more than 24 passes, i.e. approximately 3 months), treated or not treated by means of a daily application of hexapeptide-2 in a concentration of 1 μM in culture medium, (5 applications per week). For each pass, a portion of the cells was frozen. Next, three passes were selected: passes 4, 12 and 24.
The miRNAs were extracted with the aid of an extraction kit (Ambion, Ref AMI1561), then reverse transcribed with a specific kit (Applied Biosystems, Ref 4374966). A real-time PCR was carried out in a thermocycler with the aid of a TaqMan Gene Expression Assay specific for miRNA-29a 3p (Applied Biosystems, 002112) and a TaqMan Gene Expression Assay specific for RNU44 used as an endogenic control (Applied Biosystems, 001094). The relative quantification of the expression of miRNA-29a 3p was carried out using the comparative Ct method.

[13] = test system: collagen; conditions: concentrations of 1 μM, 10 μM and 100 μM; cited from earlier work

Molecule: O=C(O)[C@@H]1CCCN1C(=O)OCc1ccccc1 [Cpz-Pro, reference compound]
- Activity of prolidase (%) ([1]; 10 mM): 90%

Molecule: TGF-β: activator for collagen I (R&D system, Ref. 240B)
- Expression of collagen I (%) ([2]; 10 ng/ml): 182%

Molecule: CC1=C(/C=C/C(C)=C/C=C/C(C)=C/C(=O)O)C(C)(C)CCC1 [retinoic acid, reference compound]
- Activity of prolidase (%) ([1]; 1 μM, 24 hours): 105%

Molecule: His-D-Trp-Ala-Trp-D-Phe-Lys-NH2 (H[dW]AW[dF]K-NH2) [hexapeptide-2]
- Expression of prolidase (intensity/area of cells (%)) ([3]; 0.5 μM): 118%
- Expression of prolidase (intensity/area of cells (%)) ([3]; 1 μM): 128%
- Activity of prolidase (%) ([1]; 0.5 μM, 24 hours): 122%
- Activity of prolidase (%) ([1]; 1 μM, 24 hours): 114%
- Expression of collagen I (%) ([2]; 0.5 μM, 48 hours): 120%
- Expression of collagen I (%) ([2]; 1 μM, 48 hours): 145%
- Expression of collagen I (%) ([4]; 0.5 μM topical): 119%
- Expression of collagen I (%) ([4]; 1 μM topical): 154%
- Expression of Collagen III (%) ([5]; 0.5 μM topical): 155%
- Expression of Collagen III (%) ([5]; 1 μM topical): 155%
- reduction in the expression of miRNA-29a 3p ([6]; fibroblasts of donor one): −14%
- reduction in the expression of miRNA-29a 3p ([6]; fibroblasts of donor three): −27%
- reduction in the expression of miRNA-29a 3p ([6]; fibroblasts of donor two): −13%
- activity of β-galactosidase linked to senescence (number of blue-stained cells) [7]: visible reduction in the activity of β-galactosidase
- expression of collagen I in senescent cells [8]: smaller reduction in the expression of collagen I
- reduction in the activity of beta-galactosidase compared with untreated cells [9]: −22%
- reduction in the activity of the β-galactosidase compared with untreated cells [10]: −31%
- restoration in the activity of prolidase compared with untreated control cells in the same pass ([11]; senescent cells (P20)): 20%
- effect on activity of prolidase ([11]; young cells (P12)): little or no effect
- effect on the expression of miRNA-29a 3p ([12]; pass 4, 1 μM daily long-term): no effect
- reduction in the expression of miRNA-29a 3p ([12]; pass 12, 1 μM daily long-term): −16%
- reduction in the expression of miRNA-29a 3p ([12]; pass 24, 1 μM daily long-term): −7%
- effect on the secretion of collagen by fibroblasts cultured in vitro [13]: no effect
